In US8889615B2, “Methods for promoting epithelialization and healing of chronic wounds” (New York University, priority 2009, dated 2014):
Entries after “also recorded” stand apart in the source; their conditions may differ.

Legend:
wounded human skin [1] = test: Human skin wound model, topical treatment, epithelialization by planimetry; type: cell-based; details: topical DEX 1 μM + Calphostine C 200 μM, 6 days
Method: Wounds were created using 4-mm punch biopsies through the reticular dermis and incubated on the air-liquid interface, as previously described. Immediately upon wounding cells were treated topically with dexamethasone (DEX) (1 μM), Calphostine C (CC) (200 μM) and the combination, DEX+CC and maintained on the air-liquid interface for 6 days. All specimens were frozen in OCT compound (Tissue Tek, Reading; Calif.) for immunocytochemistry. Wounds were quantified by planimetry as described previously (Tomic-Canic, et al., Wound Repair Regen., 15(1):71-9 (2007)).

β-catenin = β-catenin nuclearization in primary human epidermal keratinocytes (immunostaining, β-catenin y142); type: cell-based; details: 0.1 μmol/L dexamethasone; 200 nM Calphostin C or 10 μM RU486
Method: Topical GC treatment of human skin cepsimens was performed by daily applica-tion of Cormax (Clobetasol Propionate Cream 0.05%; Oclassen Pharmaceuticals, Inc.) using a sterile Q-tip applicator. Samples were fixed in formalin and processed for paraffin embedding following by sectioning to obtain 5-μm-thick sections. Keratinocytes were grown on chamber slides to 70% confluency (Lab-Tek, Naperville, Ill.) and treated with 0.1 μmol/L dexamethasone (Sigma) and incubated in the presence or absence of 200 nM Calphostin C or 10 μM RU486. Cells were fixed in 70% methanol for 10 minutes and permeabilized with 0.1% Triton X-100 for 10 minutes. Human tissues were stained with β-catenin antibody β-catenin phosphorylated Ab (Tyr- 142) (AbCam) at 1:1500 dilution in 5% bovine serum albumin and visualized using a secondary fluorescein isothiocyanate anti-mouse IgG antibody 1:150 (Sigma). All sections were mounted with mounting media. All negative controls were prepared by substitution of the primary antibody with an irrelevant antibody. The sections were analyzed using a Carl Zeiss microscope (Carl Zeiss, Thornwood, N.Y.) and digital images were collected using Adobe TWAIN—32 program.

[2] = tested on: LEF/TCF-mediated transcription; test: SuperTopFlash Tcf/Lef luciferase reporter assay in primary human keratinocytes; type: cell-based; details: 24 hours; for dexamethasone-mediated induction of LEF/TCF-mediated transcription: Dexamethasone 1 μM with RU486 10 μM or Calphostine C 200 nM
Method: Primary human keratinocytes were plated into 6-well plates and grown to 70% confluence in defined serum-free keratinocyte medium supplemented with epidermal growth factor and bovine pituitary extract (keratinocyte-SFM, GIBCO). Prior to transfection cells were transferred to basal serum—free medium (GIBCO) for 6 h, and then transfected with Tcf/Lef transcriptional activation reporter construct SuperTopFlash (Masckauchán, Mol. Biol. Cell, 17(12):5163-5172 (2006)) containing Tcf responsive elements and renilla-luciferase construct. Transfections were performed in triplicates using 3 μg of reporter plasmid, 0.2 μg of renilla-luciferase plasmid with a FuGene 6 transfection reagent (Roche), following manufacturer's instructions for procedure. Cells were incubated at 37° C. for over night with transfection cocktail and than treated with Dexamethasone (1 μM), RU486 (10 μM) and Calphostine C (200 nM) for 24 hours. Cell lysates were prepared the next day and both firefly and renilla luciferase activities were evaluated using Dual-Luciferase Reporter Assay System (Promega, Madison, Wis.). Samples were read in a luminometer and values were normalized for transfection efficiency using renilla-luciferase activity.

protein kinase C = details: cited from earlier work
c-myc = c-myc Western blot in HEK; type: cell-based, human; details: DEX 1 μM with Calphostine C or RU486 10 μM, 4 hours
Method: Extracts for immunoblotting were prepared from a subconfluent 100 mm plate of normal HEK treated with DEX (1 μM), Calphostine C and RU486 (10 μM) or an equal volume of ethanol vehicle 4 hours prior to lysis. Cells were placed on ice; washed twice with phosphate-buffer saline (PBS); and lysed in 0.5 ml of modified RIPA buffer containing 50 mM Hepes, pH 7.5, 150 mM NaCl, 1 mM EDTA, 1 mM EGTA, 1 mM NaF, 1% Triton X-100, 10% glycerol, and additional protease and phosphatase inhibitors (1 mM phenylmethylsulfonyl fluoride, 20 mM glycerophosphate, 8 mM sodium pyrophosphate, 1 μg/ml leupeptin, 1 μg/ml pepstatin A, and 1 μg/ml aprotinin (Roche, Indianapolis, Ind.)) through fine needle aspiration. Lysates were centrifuged at 13,000 rpm for 10 min at 4° C. The soluble supernatants were normalized for total protein concentration using the Bradford protein assay, and the samples were stored at −20° C. Cell extracts were boiled for 5 minutes in Leammli sample buffer, were separated by 10% SDS-PAGE and transferred to nitrocellulose membrane (VWR, Batavia, Ill.) on 100 V for 1 hour in Tris/glycine transfer buffer. […] Western blot quantification was done using Total Lab Program (Non-linear dynamics Inc., NC).

[3] = tested on: Ca^2+-independent PKC d-, e-, and z-isozymes; details: even at micromolar levels; cited from earlier work
protein kinase C (PKC) = details: rat brain; cited from earlier work
GSK3β = test: Phospho-GSK3β (Ser 9) Western blot in keratinocytes; type: cell-based, human; details: DEX 1 μM with GO6979 400 μM, RU486 10 μM or U73122 10 μM
Method: Extracts for immunoblotting were prepared from a subconfluent 100 mm plate of normal HEK treated with DEX (1 μM), Calphostine C and RU486 (10 μM) or an equal volume of ethanol vehicle 4 hours prior to lysis. Cells were placed on ice; washed twice with phosphate-buffer saline (PBS); and lysed in 0.5 ml of modified RIPA buffer containing 50 mM Hepes, pH 7.5, 150 mM NaCl, 1 mM EDTA, 1 mM EGTA, 1 mM NaF, 1% Triton X-100, 10% glycerol, and additional protease and phosphatase inhibitors (1 mM phenylmethylsulfonyl fluoride, 20 mM glycerophosphate, 8 mM sodium pyrophosphate, 1 μg/ml leupeptin, 1 μg/ml pepstatin A, and 1 μg/ml aprotinin (Roche, Indianapolis, Ind.)) through fine needle aspiration. Lysates were centrifuged at 13,000 rpm for 10 min at 4° C. The soluble supernatants were normalized for total protein concentration using the Bradford protein assay, and the samples were stored at −20° C. Cell extracts were boiled for 5 minutes in Leammli sample buffer, were separated by 10% SDS-PAGE and transferred to nitrocellulose membrane (VWR, Batavia, Ill.) on 100 V for 1 hour in Tris/glycine transfer buffer. The membranes were blocked for 30 minutes in 5% bovine serum albumin in blocking solution (Tris-buffered saline (TBS, pH 7.4) at room temperature and then incubated in blocking solution with primary antibody at 4° C. overnight using 1:500 of serum for anti-c-myc antibody (Santa Cruz). The membranes were washed three times for 5 minutes with TBS and 0.1% Triton X-100 and twice with TBS and incubated for 1 hour at room temperature with horseradish peroxidase-conjugated secondary antibody (Santa Cruz, Calif.). Blots were then washed three times for 5 minutes with TBS and 0.1% Triton X-100 and developed using Super Signal West Pico Chemiluminescent substrate (Pierce, Rockford, Ill.) and exposed on x-ray film (Eastman Kodak Co. Bio Max MR-Film) according to the manufacturer's instructions. For loading control we used anti b-tubulin antibody (Santa Cruz, Santa Cruz, Calif.). Western blot quantification was done using Total Lab Program (Non-linear dynamics Inc., NC). […]

[4] = tested on: Primary human keratinocytes; test: Keratinocyte migration, wound scratch assay; type: cell-based
Method: Primary human keratinocytes were grown to 80% confluency. Twenty-four hours before the experiment cells were transferred to basal KBM medium (Life Technologies, Inc., Grand Island, N.Y.). Before the scratch, cells were treated with 8 μg/ml mitomycin C (ICN, Irvine, Calif.) for 1 hour and washed with basal media. Scratches were performed as previously described (Lee, et al., J Mol. Biol., 345:1083-1097 (2005)). Cells were incubated with 20 μmol/L LiCl or 25 ng/ml of EGF for 24 and 48 hours, rephotographed, and cell migration was quantified as previously described (Lee, et al., J. Mol. Biol., 345:1083-1097 (2005); Zavadil. et al., EMBO J., 23:1155-1165 (2004)). Thirty measurements were taken for each experimental condition and distance coverage by cells moving into the scratch wound area was quantified. Three images were analyzed per condition, per time point, and averages and standard deviations were calculated.

wounded human skin [5] = test: Human skin ex vivo wound model with LiCl; type: cell-based; details: 4 mm punch wound, air-liquid interface, 20 mmol/L LiCl, 4 days
Excerpt: Wounds were created using 4-mm punch biopsies through the reticular dermis and a rim of cells participating in wound healing was collected by re-punching around the initial wounded area. Each time point was collected in parallel with an unwounded skin specimen of the same donor. All specimens were collected and either stored in RNAlater (Ambion, Austin, Tex.) or frozen in OCT compound (Tissue Tek, Reading, Calif.) for immunocytochemistry. To activate β-catenin, wounded skin was maintained on the air-liquid interface in the presence or absence of 20 mmol/L LiCl (Shimm, et al., J. Biol. Chem., 278:19674-19681 (2003)). Wounds were quantified by planimetry as described previously (Stojadinovic, et al., Am. J. Pathol., 167(1):59-69 (2005)).

PLC = details: human platelets and neutrophils; read-out: IC50, agonist-induced PLC activation; cited from earlier work

SMILES	GC-mediated nuclearization (activation) of β-catenin (β-catenin)	dexamethasone-mediated induction of LEF/TCF-mediated transcription [2]	GCs-mediated c-myc activation (c-myc)	dexamethasone-mediated phosphorylation of GSK3β (GSK3β)	further results
COc1c(CC(C)OC(=O)Oc2ccc(O)cc2)c2c3c(CC(C)OC(=O)c4ccccc4)c(OC)c(=O)c4c(O)cc(OC)c(c5c(OC)cc(O)c(c1=O)c52)c43 (stereo not drawn) [Calphostin C]	blocked	blocked	blocked		dexamethasone-mediated inhibition of epithelialization (wounded human skin [1]): rescues; IC50 (protein kinase C): 50 nM
Cn1c2ccccc2c2c3c(c4c5ccccc5n(CCC#N)c4c21)CNC3=O [Go 6976, 12-(2-Cyanoethyl)-6,7,12,13-tetrahydro-13-methyl-5-oxo-5H-indolo(2,3-a)pyrrolo(3,4-c)-carbazole]				block	effect on kinase activity of Ca^2+-independent PKC d-, e-, and z-isozymes [3]: does not affect; IC50 (protein kinase C (PKC)): 7.9 nM
[Cl-].[Li+] [LiCl]					LEF/TCF-mediated transcription (TopFlash activity) ([2]; agent alone, Dexamethasone 1 μM): increase activity; keratinocyte migration ([4]; 20 μmol/L LiCl or 25 ng/ml of EGF, 24 and 48 hours): inhibited; EGF-stimulated keratinocyte migration ([4]; LiCl with EGF): efficiently blocked; wound healing (planimetry, histology) (wounded human skin [5]): completely inhibited
CC#C[C@]1(O)CC[C@H]2[C@@H]3CCC4=CC(=O)CCC4=C3[C@@H](c3ccc(N(C)C)cc3)C[C@@]21C [RU486, (11b,17b)-11-(4-(Dimethylamino)phenyl)-17-hydroxy-17-(1-propynyl)estra-4,9-dien-3-one]	blocked	abolished	blocked	completely abolished; also recorded: block	
COc1ccc2c(c1)CCC1C2CC[C@@]2(C)C1CC[C@@H]2NCCCCCCN1C(=O)C=CC1=O (stereo partly drawn) [U-73122]				inhibits	IC50 (PLC): 1000 to 2100 nM
